Laboratory results published in ChEMBL document CHEMBL5370535, “Thiazolyl hydrazineylidenyl indolones as unique potential multitargeting broad-spectrum antimicrobial agents” (Eur J Med Chem, 2023).
In brackets after ≈: the same amount, converted by molar mass.

Tests used:
Format in all cases: functional
[1] = system: Staphylococcus aureus; experiment: Antibacterial activity against methicillin-resistant Staphylococcus aureus assessed as bacterial growth inhibition incubated for 24 hrs by CLSI based two serial dilution assay
[2] = system: Enterococcus faecalis; experiment: Antibacterial activity against Enterococcus faecalis assessed as bacterial growth inhibition incubated for 24 hrs by CLSI based two serial dilution assay
[3] = system: Staphylococcus aureus; experiment: Antibacterial activity against Staphylococcus aureus assessed as bacterial growth inhibition incubated for 24 hrs by CLSI based two serial dilution assay
[4] = system: Staphylococcus aureus; experiment: Antibacterial activity against Staphylococcus aureus 25923 assessed as bacterial growth inhibition incubated for 24 hrs by CLSI based two serial dilution assay
[5] = system: Staphylococcus aureus; experiment: Antibacterial activity against Staphylococcus aureus 29213 assessed as bacterial growth inhibition incubated for 24 hrs by CLSI based two serial dilution assay
[6] = system: Klebsiella pneumoniae; experiment: Antibacterial activity against Klebsiella pneumoniae assessed as bacterial growth inhibition incubated for 24 hrs by CLSI based two serial dilution assay
[7] = system: Escherichia coli; experiment: Antibacterial activity against Escherichia coli assessed as bacterial growth inhibition incubated for 24 hrs by CLSI based two serial dilution assay
[8] = system: Escherichia coli; experiment: Antibacterial activity against Escherichia coli 25922 assessed as bacterial growth inhibition incubated for 24 hrs by CLSI based two serial dilution assay
[9] = system: Pseudomonas aeruginosa; experiment: Antibacterial activity against Pseudomonas aeruginosa assessed as bacterial growth inhibition incubated for 24 hrs by CLSI based two serial dilution assay
[10] = system: Pseudomonas aeruginosa; experiment: Antibacterial activity against Pseudomonas aeruginosa ATCC 27853 assessed as bacterial growth inhibition incubated for 24 hrs by CLSI based two serial dilution assay
[11] = system: Acinetobacter baumannii; experiment: Antibacterial activity against Acinetobacter baumannii assessed as bacterial growth inhibition incubated for 24 hrs by CLSI based two serial dilution assay
[12] = system: Candida albicans; experiment: Antifungal activity against Candida albicans assessed as inhibition of fungal growth incubated for 24 hrs by CLSI based two serial dilution assay
[13] = system: Candida albicans; experiment: Antifungal activity against Candida albicans ATCC 90023 assessed as inhibition of fungal growth incubated for 24 hrs by CLSI based two serial dilution assay
[14] = system: Candida tropicalis; experiment: Antifungal activity against Candida tropicalis assessed as inhibition of fungal growth incubated for 24 hrs by CLSI based two serial dilution assay
[15] = system: Candida parapsilosis; experiment: Antifungal activity against Candida parapsilosis ATCC 22019 assessed as inhibition of fungal growth incubated for 24 hrs by CLSI based two serial dilution assay; conditions: Lodderomyces parapsilosis
[16] = system: Aspergillus fumigatus; experiment: Antifungal activity against Aspergillus fumigatus assessed as inhibition of fungal growth incubated for 24 hrs by CLSI based two serial dilution assay

SMILES	MIC [1] [µM]	MIC [2] [µM]	MIC [3] [µM]	MIC [4] [µM]	MIC [5] [µM]	MIC [6] [µM]	MIC [7] [µM]	MIC [8] [µM]	MIC [9] [µM]	MIC [10] [µM]	MIC [11] [µM]	MIC [12] [µM]	MIC [13] [µM]	MIC [14] [µM]	MIC [15] [µM]	MIC [16] [µM]
CCCCCCN1C(=O)/C(=N\Nc2nccs2)c2ccccc21	64 (≈ 21 µg/mL)	4 (≈ 1.31 µg/mL)	16 (≈ 5.26 µg/mL)	32 (≈ 10.5 µg/mL)	2 (≈ 0.657 µg/mL)	16 (≈ 5.26 µg/mL)	64 (≈ 21 µg/mL)	16 (≈ 5.26 µg/mL)	4 (≈ 1.31 µg/mL)	32 (≈ 10.5 µg/mL)	16 (≈ 5.26 µg/mL)	32 (≈ 10.5 µg/mL)	64 (≈ 21 µg/mL)	16 (≈ 5.26 µg/mL)	64 (≈ 21 µg/mL)	32 (≈ 10.5 µg/mL)
CCCCN1C(=O)/C(=N\Nc2nccs2)c2cc(Br)ccc21	16 (≈ 6.07 µg/mL)	32 (≈ 12.1 µg/mL)	64 (≈ 24.3 µg/mL)	32 (≈ 12.1 µg/mL)	16 (≈ 6.07 µg/mL)	256 (≈ 97.1 µg/mL)	16 (≈ 6.07 µg/mL)	16 (≈ 6.07 µg/mL)	8 (≈ 3.03 µg/mL)	256 (≈ 97.1 µg/mL)	16 (≈ 6.07 µg/mL)	32 (≈ 12.1 µg/mL)	64 (≈ 24.3 µg/mL)	64 (≈ 24.3 µg/mL)	32 (≈ 12.1 µg/mL)	16 (≈ 6.07 µg/mL)
CCCCN1C(=O)/C(=N\Nc2nccs2)c2cc(Cl)ccc21	1 (≈ 0.335 µg/mL)	32 (≈ 10.7 µg/mL)	1 (≈ 0.335 µg/mL)	1 (≈ 0.335 µg/mL)	1 (≈ 0.335 µg/mL)	0.5 (≈ 0.167 µg/mL)	1 (≈ 0.335 µg/mL)	0.5 (≈ 0.167 µg/mL)	0.5 (≈ 0.167 µg/mL)	0.5 (≈ 0.167 µg/mL)	1 (≈ 0.335 µg/mL)	0.5 (≈ 0.167 µg/mL)	2 (≈ 0.67 µg/mL)	16 (≈ 5.36 µg/mL)	0.5 (≈ 0.167 µg/mL)	4 (≈ 1.34 µg/mL)
CCCCN1C(=O)/C(=N\Nc2nccs2)c2cc(Br)cc(Br)c21	1 (≈ 0.458 µg/mL)	0.5 (≈ 0.229 µg/mL)	16 (≈ 7.33 µg/mL)	0.5 (≈ 0.229 µg/mL)	16 (≈ 7.33 µg/mL)	0.5 (≈ 0.229 µg/mL)	1 (≈ 0.458 µg/mL)	1 (≈ 0.458 µg/mL)	1 (≈ 0.458 µg/mL)	512 (≈ 235 µg/mL)	512 (≈ 235 µg/mL)	0.5 (≈ 0.229 µg/mL)	1 (≈ 0.458 µg/mL)	1 (≈ 0.458 µg/mL)	128 (≈ 58.6 µg/mL)	512 (≈ 235 µg/mL)
CCCCN1C(=O)/C(=N\Nc2nccs2)c2cc(F)ccc21	2 (≈ 0.637 µg/mL)	4 (≈ 1.27 µg/mL)	4 (≈ 1.27 µg/mL)	4 (≈ 1.27 µg/mL)	1 (≈ 0.318 µg/mL)	1 (≈ 0.318 µg/mL)	1 (≈ 0.318 µg/mL)	1 (≈ 0.318 µg/mL)	1 (≈ 0.318 µg/mL)	4 (≈ 1.27 µg/mL)	1 (≈ 0.318 µg/mL)	1 (≈ 0.318 µg/mL)	1 (≈ 0.318 µg/mL)	4 (≈ 1.27 µg/mL)	1 (≈ 0.318 µg/mL)	4 (≈ 1.27 µg/mL)
